How the values were obtained:
[1] = tested on: canker sores (aphthous ulcers); assay: Inventor's trials of oral patches with licorice root extract or amoxicillin on canker sores; assay type: in vivo, human
Procedure: For medication to be placed in the patch, any of the above-mentioned antimicrobials, or similar antimicrobials, may be used. […] A preferred quantity of licorice extract in each patch that lasts 1 to 6 hours is 20 to 95 milligrams.
In the testing, conventional amoxicillin powder for preparation of oral suspension was used, which includes sugars and other excipients. The sugars act as a binder to the sponge of the oral patch. The oral suspension is massaged into the patch and dried. Preferably, the amoxicillin powder is mixed into a stronger than normal liquid form before being added to the patch.

[2] = tested on: canker sores (aphthous ulcers); conditions: topical application, reported in literature; cited from earlier work

Molecule: CC1(C)S[C@@H]2[C@H](NC(=O)[C@H](N)c3ccc(O)cc3)C(=O)N2[C@H]1C(=O)O [amoxicillin]
- effectiveness on canker sores ([1]; amoxicillin powder for oral suspension on conventional patches): works quite well
- typical duration of each canker sore ([1]; in a patch applied for half of the hours, day and night, typically 10-14 days without treatment): ~2 days
- results of treatment of canker sores ([1]; patch keeping medication on or near the sore about half of the hours in a day over 2 days): nearly always effective
- results of treatment of canker sores ([1]; troche, gel, paste or liquid applied six times per day for 2 days): nearly always ineffective
- healing of canker sores [2]: shown effective

Molecule: NC(N)=O.OO [carbamide peroxide]
- healing of canker sores [2]: reported to speed healing of canker sores

Molecule: N=C(NCCCCCCNC(=N)NC(=N)Nc1ccc(Cl)cc1)NC(=N)Nc1ccc(Cl)cc1.O=C(O)[C@H](O)[C@@H](O)[C@H](O)[C@H](O)CO.O=C(O)[C@H](O)[C@@H](O)[C@H](O)[C@H](O)CO [chlorhexidine gluconate]
- healing of canker sores [2]: reported to speed healing of canker sores

Molecule: CN(C)CCOC(c1ccccc1)c1ccccc1 [diphenhydramine]
- healing of canker sores [2]: reported to speed healing of canker sores

Molecule: OO [hydrogen peroxide]
- healing of canker sores [2]: reported to speed healing of canker sores

Molecule: penicillin
- healing of canker sores [2]: shown to speed healing of canker sores
